Experimental findings from PubChem BioAssay AID180 (DTP/NCI, 2004) are described below.

The test system of the experiment is BDF1 mice, Adenocarcinoma 755 s.c., tumor weight T/C. Put plainly: NCI In Vivo Anticancer Drug Screen. Data for tumor model Adenocarcinoma 755 (subcutaneous) in B6D2F1 (BDF1) mice. The following applies: endpoint: mean tumor weight, higher = larger tumour. The protocol:
The antitumor activity of compounds was measured in mice bearing transplantable tumors. Survival or tumor size were measured and the results are expressed as the measurement made in the treated group (T) divided by the measurement made in the vehicle treated control group (C). The tumor model used in this assay is Adenocarcinoma 755 (subcutaneous) in B6D2F1 (BDF1) mice

Structures are written as SMILES. Several values for one entry are separate records, joined by “and”; a condition that tells them apart may be missing. Identical values can stand only once.

As usually defined, the T/C is the result in the treated group divided by that in the control group, in per cent. Regarding `Cn1c(N)nc2nc[nH]c2c1=S`, the T/C (dose: 4.0 mg/kg/injection, schedule: Q01DX011 (oral), vehicle: carboxymethylcellulose (CMC)) was 114 % of control; the T/C (dose: 4.0 mg/kg/injection, schedule: Q01DX011 (oral), vehicle: saline) is 91 % of control; the T/C (dose: 5.0 mg/kg/injection, schedule: Q01DX011 (ip), vehicle: methylcellulose (MC)) was 4 % of control; the T/C (dose: 6.0 mg/kg/injection, schedule: Q01DX011 (ip), vehicle: methylcellulose (MC)) was 5 % of control; the T/C (dose: 7.0 mg/kg/injection, schedule: Q01DX011 (ip), vehicle: methylcellulose (MC)) was 4 % of control; the T/C (dose: 8.0 mg/kg/injection, schedule: Q01DX011 (oral), vehicle: carboxymethylcellulose (CMC)) is 112 % of control. Also, the T/C is 92 % of control (dose: 8.0 mg/kg/injection, schedule: Q01DX011 (oral), vehicle: saline); 119 % of control (dose: 16.0 mg/kg/injection, schedule: Q01DX011 (oral), vehicle: carboxymethylcellulose (CMC)); 80 % of control (dose: 16.0 mg/kg/injection, schedule: Q01DX011 (oral), vehicle: saline); 203 % of control (dose: 32.0 mg/kg/injection, schedule: Q01DX011 (oral), vehicle: carboxymethylcellulose (CMC)); 86 % of control (dose: 32.0 mg/kg/injection, schedule: Q01DX011 (oral), vehicle: saline); 151 % of control (dose: 64.0 mg/kg/injection, schedule: Q01DX011 (oral), vehicle: carboxymethylcellulose (CMC)). Also, the T/C reads like this: (dose: 64.0 mg/kg/injection, schedule: Q01DX011 (oral), vehicle: saline) 120 % of control; (dose: 500.0 mg/kg/injection, schedule: Q01DX011 (oral), vehicle: carboxymethylcellulose (CMC)) 85 % of control; (dose: 750.0 mg/kg/injection, schedule: Q01DX011 (oral), vehicle: carboxymethylcellulose (CMC)) 90 % of control; (dose: 310.0 micrograms/kg/injection, schedule: Q01DX011 (ip), vehicle: methylcellulose (MC)) 32 % of control; (dose: 625.0 micrograms/kg/injection, schedule: Q01DX011 (ip), vehicle: methylcellulose (MC)) 64 % of control; (dose: 1000.0 micrograms/kg/injection, schedule: Q01DX011 (ip), vehicle: methylcellulose (MC)) 3 % of control. Besides, the T/C (dose: 1250.0 micrograms/kg/injection, schedule: Q01DX011 (ip), vehicle: methylcellulose (MC)) was 18 % of control; the T/C (dose: 2000.0 micrograms/kg/injection, schedule: Q01DX011 (ip), vehicle: methylcellulose (MC)) is 3 % of control; the T/C (dose: 2500.0 micrograms/kg/injection, schedule: Q01DX011 (ip), vehicle: methylcellulose (MC)) is 4 % of control; the T/C (dose: 5000.0 micrograms/kg/injection, schedule: Q01DX011 (ip), vehicle: methylcellulose (MC)) was 4 % of control; the T/C (dose: 7500.0 micrograms/kg/injection, schedule: Q01DX011 (ip), vehicle: methylcellulose (MC)) was 2 % of control.

For the molecule `CC(=O)N[C@H]1CC[C@H]2[C@@H]3CCC4=CC(=O)CC[C@]4(C)[C@H]3CC[C@]12C`, the T/C was 99 % of control (dose: 5.0 mg/kg/injection, schedule: Q01DX011 (sc), vehicle: steriod suspending solution); 111 % of control (dose: 50.0 mg/kg/injection, schedule: Q01DX011 (sc), vehicle: steriod suspending solution); 89 % of control (dose: 100.0 mg/kg/injection, schedule: Q01DX011 (sc), vehicle: steriod suspending solution).

Take `Cc1nc2nc(N)nc(N)c2nc1C`: the T/C reads like this: (dose: 12.62 mg/kg/injection, schedule: Q01DX011 (ip), vehicle: carboxymethylcellulose (CMC)) 67 % of control; (dose: 15.63 mg/kg/injection, schedule: Q01DX011 (ip), vehicle: carboxymethylcellulose (CMC)) 50 % of control; (dose: 62.5 mg/kg/injection, schedule: Q01DX011 (ip), vehicle: carboxymethylcellulose (CMC)) 122 % of control and 123 % of control; (dose: 125.0 mg/kg/injection, schedule: Q01DX011 (ip), vehicle: carboxymethylcellulose (CMC)) 58 % of control.

As to `CC(=O)N1CCCCC1`, the T/C was 92 % of control (dose: 12.5 mg/kg/injection, schedule: Q01DX011 (ip), vehicle: other); 69 % of control (dose: 25.0 mg/kg/injection, schedule: Q01DX011 (ip), vehicle: other); 73 % of control (dose: 50.0 mg/kg/injection, schedule: Q01DX011 (ip), vehicle: other); 85 % of control (dose: 100.0 mg/kg/injection, schedule: Q01DX011 (ip), vehicle: other).

Consider `CN(Cc1cnc2nc(NCNC(=O)C3=C(O)[C@@]4(O)C(=O)C5=C(O)c6c(O)cccc6[C@@](C)(O)[C@H]5C[C@H]4[C@H](N(C)C)C3=O)nc(N)c2n1)c1ccc(C(=O)NC(CCC(=O)O)C(=O)O)cc1` (some centres not stated), for which the T/C by setting is: (dose: 1.5 mg/kg/injection, schedule: Q01DX011 (ip), vehicle: saline) 109 % of control; (dose: 3.0 mg/kg/injection, schedule: Q01DX011 (ip), vehicle: saline) 103 % of control; (dose: 6.0 mg/kg/injection, schedule: Q01DX011 (ip), vehicle: saline) 69 % of control.

In the case of `CC(C)Cn1cnc2c(SCc3ccccn3)nc(N)nc21`, the T/C is 5 % of control (dose: 20.0 mg/kg/injection, schedule: Q01DX011 (ip), vehicle: methylcellulose (MC)) and 1 % of control (dose: 65.0 mg/kg/injection, schedule: Q01DX011 (ip), vehicle: methylcellulose (MC)).

Consider `O=P(N1CC=CCC1)(N1CC1)N1CC1`, for which the T/C runs as follows: (dose: 0.03 mg/kg/injection, schedule: Q01DX011 (ip), vehicle: saline) 75 % of control; (dose: 0.05 mg/kg/injection, schedule: Q01DX011 (ip), vehicle: saline) 81 % of control; (dose: 0.1 mg/kg/injection, schedule: Q01DX011 (ip), vehicle: saline) 114 % of control; (dose: 0.2 mg/kg/injection, schedule: Q01DX011 (ip), vehicle: saline) 100 % of control; (dose: 25.0 micrograms/kg/injection, schedule: Q01DX011 (ip), vehicle: saline) 120 % of control; (dose: 50.0 micrograms/kg/injection, schedule: Q01DX011 (ip), vehicle: saline) 94 % of control. For the same molecule, the T/C is, setting by setting: (dose: 100.0 micrograms/kg/injection, schedule: Q01DX011 (ip), vehicle: saline) 114 % of control; (dose: 200.0 micrograms/kg/injection, schedule: Q01DX011 (ip), vehicle: saline) 106 % of control.

Regarding `CC(=O)OC1CCC(C2CCCCC2)CC1` (configuration not stated), the T/C (dose: 29.0 mg/kg/injection, schedule: Q01DX011 (ip), vehicle: saline) is 157 % of control; the T/C (dose: 57.0 mg/kg/injection, schedule: Q01DX011 (ip), vehicle: saline) was 173 % of control; the T/C (dose: 57.0 mg/kg/injection, schedule: Q01DX011 (oral), vehicle: saline) was 86 % of control; the T/C (dose: 113.0 mg/kg/injection, schedule: Q01DX011 (oral), vehicle: saline) is 102 % of control; the T/C (dose: 225.0 mg/kg/injection, schedule: Q01DX011 (oral), vehicle: saline) was 84 % of control.

Consider `CC(/C=N\N=C(N)N)=N/N=C(N)N`, for which the T/C (dose: 5.75 mg/kg/injection, schedule: Q01DX011 (ip), vehicle: carboxymethylcellulose (CMC)) was 84 % of control; the T/C (dose: 7.62 mg/kg/injection, schedule: Q01DX011 (ip), vehicle: carboxymethylcellulose (CMC)) was 77 % of control; the T/C (dose: 11.5 mg/kg/injection, schedule: Q01DX011 (ip), vehicle: carboxymethylcellulose (CMC)) was 78 % of control; the T/C (dose: 15.24 mg/kg/injection, schedule: Q01DX011 (ip), vehicle: carboxymethylcellulose (CMC)) is 71 % of control; the T/C (dose: 18.4 mg/kg/injection, schedule: Q01DX011 (ip), vehicle: carboxymethylcellulose (CMC)) is 70 % of control and 86 % of control; the T/C (dose: 23.0 mg/kg/injection, schedule: Q01DX011 (ip), vehicle: carboxymethylcellulose (CMC)) is 93 % of control and 100 % of control and 80 % of control. Also, the T/C is 42 % of control (dose: 30.48 mg/kg/injection, schedule: Q01DX011 (ip), vehicle: carboxymethylcellulose (CMC)); 29 % of control and 45 % of control and 51 % of control (dose: 46.0 mg/kg/injection, schedule: Q01DX011 (ip), vehicle: carboxymethylcellulose (CMC)); 35 % of control (dose: 60.96 mg/kg/injection, schedule: Q01DX011 (ip), vehicle: carboxymethylcellulose (CMC)).

Regarding `CSc1ncc(C)c(Nc2ccc(Cl)cc2)n1`, where the note is “dose: 15.0 mg/kg/injection, schedule: Q01DX011 (ip), vehicle: methylcellulose (MC)”, the T/C is 102 % of control.
